Patent publication US12262710B2, “Fungicidal compounds” (SYNGENTA CROP PROTECTION AG, priority 2019, dated 2025)

Assays:
[1] = system: Erysiphe graminis f. sp. tritici; assay: Erysiphe graminis f. sp. tritici (wheat powdery mildew), wheat leaf segments, preventive; assay type: in vivo; details: Blumeria graminis, foliar, 168 h, 7 dpi, compared to untreated control
Method: (§1) Wheat leaf segments are placed on agar in multiwell plates (24-well format) and sprayed with test solutions. After drying, the leaf disks are inoculated with spores of the fungus. After appropriate incubation the activity of a compound is assessed 7 dpi (days post inoculation) as preventive fungicidal activity.

[2] = system: Monographella nivalis; assay: Monographella nivalis syn. Microdochium nivale (snow mould, foot rot of cereals), liquid culture growth inhibition; assay type: cell-based; details: nutrient broth (PDB), 72 hrs, photometric at 620 nm, compared to untreated control
Method: Conidia of the fungus from cryogenic storage were directly mixed into nutrient broth (PDB potato dextrose broth). A DMSO solution of the test compounds was placed into a microtiter plate (96-well format) and the nutrient broth containing the fungal spores was added to it. The test plates were incubated at 24° C. and the inhibition of growth was determined photometrically after 72 hrs at 620 nm. […] Cercospora arachidicola (Brown Leaf Spot of Peanut): […]

[3] = system: Mycosphaerella arachidis; assay: Mycosphaerella arachidis syn. Cercospora arachidicola (brown leaf spot of peanut), liquid culture growth inhibition; assay type: cell-based; details: nutrient broth (PDB), approximately 5-6 days, photometric at 620 nm, compared to untreated control
Method: Conidia of the fungus from cryogenic storage were directly mixed into nutrient broth (PDB potato dextrose broth). A DMSO solution of the test compounds was placed into a microtiter plate (96-well format) and the nutrient broth containing the fungal spores was added to it. The test plates were incubated at 24° C. and the inhibition of growth was determined photometrically after approximately 5-6 […] at 620 nm.

[4] = system: Puccinia recondita f. sp. tritici; assay: Puccinia recondita (brown rust), preventative, wheat leaf segments; assay type: in vivo; details: foliar, 192 h, 8 dpi, compared to untreated control
Method: as §1, with “segments” for “disks”, “a spore suspension” for “spores”, “8” for “7”, “after” for “post”, “preventative” for “preventive”

[5] = system: Glomerella lagenarium; assay: Glomerella lagenarium syn. Colletotrichum lagenarium (anthracnose of cucurbits), liquid culture growth inhibition; assay type: cell-based; details: Colletotrichum orbiculare, nutrient broth (PDB), 72 hrs, photometric at 620 nm, compared to untreated control
Method: Glomerella lagenarium Syn. Colletotrichum lagenarium (Anthracnose of Cucurbits): Conidia of the fungus from cryogenic storage were directly mixed into nutrient broth (PDB potato dextrose broth). A DMSO solution of the test compounds was placed into a microtiter plate (96-well format) and the nutrient broth containing the fungal spores was added to it. The test plates were incubated at 24° C. and the inhibition of growth was determined photometrically after 72 hrs at 620 nm. […]

[6] = system: Plasmopara viticola; assay: Plasmopara viticola (downy mildew of grapevine), grape vine leaf disks, preventive; assay type: in vivo; details: foliar, 168 h, 7 dpi, compared to untreated control
Method: as §1, with “Grape vine” for “Wheat”, “disks” for “segments”, “a spore suspension” for “spores”, “after” for “post”

[7] = system: Pyricularia oryzae; assay: whole plant or invertebrate; assay type: in vivo; details: foliar, 120 h, read-out: control of Pyricularia oryzae
[8] = system: Phakopsora pachyrhizi; assay: Phakopsora pachyrhizi (soybean rust), soybean leaf disks, preventive; assay type: in vivo; details: foliar, 288 h, approx. 12 dpi, compared to untreated control
Method: as §1, with “Soybean” for “Wheat”, “disks” for “segments”, “a spore suspension” for “spores”, “approx. 12” for “7”, “after” for “post”

[9] = system: Puccinia recondita; assay: Example C: comparative activity against Puccinia recondita (brown rust), curative, wheat leaf segments; assay type: in vivo; details: 8 dpi
Method: Method; Wheat leaf segments are placed on agar in multiwell plates (24-well format). The leaf segments are inoculated with a spore suspension of the fungus and sprayed with test solutions 1 day after inoculation. After appropriate incubation the activity of a compound is assessed 8 dpi (days after inoculation) as curative fungicidal activity. The data are presented as the percentage of disease control of each compound for the biological tests and testing rates described below in table H.

[10] = system: Phakopsora pachyrhizi; assay: Example D: comparative activity against Phakopsora pachyrhizi (soybean rust), soybean plants sprayed, leaf disks cut from treated plants; assay type: in vivo; details: 0.1% OCHIMA, leaf disks cut one day after application, approx. 12 dpi
Method: Method: Soybean plants are sprayed in a spray chamber with formulated DMSO compound solutions which are diluted to the appropriate concentration with 0.1% […] (adjuvant comprising polyethoxylated sorbitol hexaoleate and tris(2-ethylhexyl) phosphate) just before spraying. Leaf disks are cut from treated plants and placed on agar into 24-well plates one day after application. After, the leaf disks are inoculated with a spore suspension of the fungus. After appropriate incubation the activity of a compound is assessed approx. 12 dpi (days after inoculation) as preventive fungicidal activity. The data are presented as the percentage of disease control of each compound for the biological tests and testing rates described below in Table 1.

[11] = system: Phakopsora pachyrhizi; assay: Example E: comparative activity against Phakopsora pachyrhizi (soybean rust), soybean leaf disks sprayed; assay type: in vivo; details: 0.025% Tween20, approx. 12 dpi
Method: Method: Compounds to be tested are prepared as DMSO solutions which are diluted to the appropriate concentration with 0.025% Tween20 just before spraying. Soybean leaf disks are placed on agar in multiwell plates (24-well format) and sprayed with test solutions. After drying, the leaf disks are inoculated with a spore suspension of the fungus. After appropriate incubation the activity of a compound is assessed approx. 12 dpi (days after inoculation) as preventive fungicidal activity. The data are presented as the percentage of disease control of each compound for the biological tests and testing rates described below in Table J.

[12] = system: Puccinia recondita f. sp. tritici; assay: Puccinia recondita (brown rust), curative, wheat leaf segments; assay type: in vivo; details: foliar, 192 h, sprayed 1 day after inoculation, 8 dpi, compared to untreated control
Method: Wheat leaf segments are placed on agar in multiwell plates (24-well format). The leaf segments are inoculated with a spore suspension of the fungus and sprayed with test solutions 1 day after inoculation. After appropriate incubation the activity of a compound is assessed 8 dpi (days after inoculation) as curative fungicidal activity.

| SMILES | pest or weed control at 200 ppm [1] | inhibition of growth at 20 ppm [2] | inhibition of growth at 20 ppm [3] | pest or weed control at 200 ppm [4] | inhibition of growth at 20 ppm [5] | pest or weed control at 200 ppm [6] | other results |
| --- | --- | --- | --- | --- | --- | --- | --- |
| CO/C=C(\Oc1cc(C2CCC(C(F)(F)F)CC2)ccc1C)C(=O)OC (centres unmarked) [E.1, methyl (Z)-3-methoxy-2-[2-methyl-5-[4-(trifluoromethyl)cyclohexyl]phenoxy] prop-2-enoate] | ≥ 80% | ≥ 80% | ≥ 80% | ≥ 80% |  |  |  |
| CO/C=C(\Oc1cc(C2=CCC(C)(C)CC2)ccc1C)C(=O)OC [F.10, methyl (Z)-2-[5-(4,4-dimethylcyclohexen-1-yl)-2-methyl-phenoxy]-3-methoxy-prop-2-enoate] | ≥ 80% | ≥ 80% | ≥ 80% | ≥ 80% | ≥ 80% | ≥ 80% |  |
| CO/C=C(\Oc1cc(C2CCC(F)(F)CC2)ccc1C)C(=O)OC [E.6, methyl (Z)-2-[5-(4,4-difluorocyclohexyl)-2-methyl-phenoxy]-3-methoxy-prop-2-enoate] | ≥ 80% | ≥ 80% | ≥ 80% | ≥ 80% | ≥ 80% | ≥ 80% | pest or weed control at 200 ppm [7]: ≥ 80% |
| CO/C=C(\Oc1cc(C2CCC(C(C)C)CC2)ccc1C)C(=O)OC (centres unmarked) [E.17, methyl (Z)-2-[5-(4-isopropylcyclohexyl)-2-methyl-phenoxy]-3-methoxy-prop-2-enoate] | ≥ 80% | ≥ 80% | ≥ 80% |  | ≥ 80% |  |  |
| CO/C=C(\Oc1cc(C2=CCCC2)ccc1C)C(=O)OC [F.4, methyl (Z)-2-[5-(cyclopenten-l-yI)-2-methyl-phenoxy]-3-methoxy-prop-2-enoate] | ≥ 80% | ≥ 80% | ≥ 80% | ≥ 80% | ≥ 80% | ≥ 80% | pest or weed control at 60 ppm [8]: ≥ 70% |
| CO/C=C(\Oc1cc(C2CCCCC2)ccc1Br)C(=O)OC [E.8, methyl (Z)-2-(2-bromo-5-cyclohexyl-phenoxy)-3-methoxy-prop-2-enoate] | ≥ 80% | ≥ 80% | ≥ 80% | ≥ 80% |  | ≥ 80% |  |
| CO/C=C(\Oc1cc(C2=CCCCCC2)ccc1C)C(=O)OC [F.5, methyl (Z)-2-[5-(cyclohepten-1-yl)-2-methyl-phenoxy]-3-methoxy-prop-2-enoate] | ≥ 80% | ≥ 80% | ≥ 80% |  | ≥ 80% | ≥ 80% |  |
| CO/C=C(\Oc1cc(C2=CCC(O)CC2)ccc1C)C(=O)OC (centres unmarked) [F.8, methyl (Z)-2-[5-(4-hydroxycyclohexen-1-yl)-2-methyl-phenoxy]-3-methoxy-prop-2-enoate] | ≥ 80% | ≥ 80% | ≥ 80% | ≥ 80% |  |  |  |
| CO/C=C(\Oc1cccc(C(C)(C)C)c1)C(=O)OC [Compound X-2, reference compound] |  |  |  |  |  |  | control (%) Puccinia recondita (Brown rust), curative ([9]; 20 ppm): 0%; control (%) Puccinia recondita (Brown rust), curative ([9]; 60 ppm): 0%; control (%) Puccinia recondita (Brown rust), curative ([9]; 200 ppm): 0%; control (%) Phakopsora pachyrhizi (Soybean rust) ([10]; 6 ppm): 0%; control (%) Phakopsora pachyrhizi (Soybean rust) ([10]; 20 ppm): 0%; control (%) Phakopsora pachyrhizi (Soybean rust) ([10]; 60 ppm): 0%; control (%) Phakopsora pachyrhizi (Soybean rust) ([10]; 200 ppm): 0%; control (%) Phakopsora pachyrhizi (Soybean rust) ([11]; 0.6 ppm): 0%; control (%) Phakopsora pachyrhizi (Soybean rust) ([11]; 2 ppm): 0%; control (%) Phakopsora pachyrhizi (Soybean rust) ([11]; 6 ppm): 0%; control (%) Phakopsora pachyrhizi (Soybean rust) ([11]; 20 ppm): 0%; control (%) Phakopsora pachyrhizi (Soybean rust) ([11]; 60 ppm): 10%; control (%) Phakopsora pachyrhizi (Soybean rust) ([11]; 200 ppm): 10% |
| CO/C=C(\Oc1cc(C2CCC(OC)CC2)ccc1C)C(=O)OC (centres unmarked) [E.19, methyl (Z)-3-methoxy-2-[5-(4-methoxycyclohexyl)-2-methyl-phenoxy]prop-2-enoate] | ≥ 80% | ≥ 80% | ≥ 80% | ≥ 80% | ≥ 80% | ≥ 80% | pest or weed control at 200 ppm [12]: ≥ 80% |
| CO/C=C(\Oc1cc(C2CCCCC2)ccc1F)C(=O)OC [E.11, methyl (Z)-2-(5-cyclohexy1-2-fluoro-phenoxy)-3-methoxy-prop-2-enoate] | ≥ 80% | ≥ 80% | ≥ 80% |  | ≥ 80% | ≥ 80% |  |
| CO/C=C(\Oc1cc(C2CCCCC2)ccc1OC)C(=O)OC [E.10, methyl (Z)-2-(5-cyclohexy1-2-methoxy-phenoxy)-3-methoxy-prop-2-enoate] | ≥ 80% | ≥ 80% | ≥ 80% | ≥ 80% |  | ≥ 80% |  |
| CO/C=C(\Oc1cc(C2CCCCCC2)ccc1C)C(=O)OC [E.3, methyl (Z)-2-(5-cyclohepty1-2-methyl-phenoxy)-3-methoxy-prop-2-enoate] | ≥ 80% | ≥ 80% | ≥ 80% | ≥ 80% | ≥ 80% | ≥ 80% | pest or weed control at 200 ppm [7]: ≥ 80% |
| CO/C=C(\Oc1cc(C#CC2CCCCC2)ccc1C)C(=O)OC [Compound X-1, reference compound] |  |  |  |  |  |  | control (%) Puccinia recondita (Brown rust), curative ([9]; 20 ppm): 0%; control (%) Puccinia recondita (Brown rust), curative ([9]; 60 ppm): 0%; control (%) Puccinia recondita (Brown rust), curative ([9]; 200 ppm): 0%; control (%) Phakopsora pachyrhizi (Soybean rust) ([10]; 6 ppm): 0%; control (%) Phakopsora pachyrhizi (Soybean rust) ([10]; 20 ppm): 0%; control (%) Phakopsora pachyrhizi (Soybean rust) ([10]; 60 ppm): 0%; control (%) Phakopsora pachyrhizi (Soybean rust) ([10]; 200 ppm): 63%; control (%) Phakopsora pachyrhizi (Soybean rust) ([11]; 0.6 ppm): 0%; control (%) Phakopsora pachyrhizi (Soybean rust) ([11]; 2 ppm): 0%; control (%) Phakopsora pachyrhizi (Soybean rust) ([11]; 6 ppm): 35%; control (%) Phakopsora pachyrhizi (Soybean rust) ([11]; 20 ppm): 80%; control (%) Phakopsora pachyrhizi (Soybean rust) ([11]; 60 ppm): 100%; control (%) Phakopsora pachyrhizi (Soybean rust) ([11]; 200 ppm): 100% |
